Read-outs that look alike come from different tables or passages of the source.
Experiments:
[1] = Solubility measurements in several solvent systems; type: physicochemical; conditions: for Solubility, 10:90 EtOH:H2 O: 10:90 Ethanol (EtOH):H2 O; for Solubility, 50:50 EtAc:Hexane: 50:50 Ethyl Acetate (EtAc):Hexane
Description: (§1) 25 grams of neotame was spread out equally on six containers and heated slowly past its melting point of about 82° C. until a temperature of about 92° C. was reached. […] Once 92° C. was reached, all of the neotame was melted. The containers containing the neotame were removed from the oven and allowed to cool to room temperature, about 23° C. The neotame was removed from the containers, and ground to a […] powder with a mortar and pestle. The x-ray diffraction pattern of the resulting amorphous neotame is illustrated in FIG. 1. Rates of dissolution and solubility measurements were then determined in several different solvent systems (deionized water; 0.1M phosphate (pH3) in water; 10:90 Ethanol (EtOH):H2 O; and 50:50 Ethyl Acetate (EtAc):Hexane) and compared to the conventional form of the neotame monohydrate.

[2] = Rate of dissolution compared to neotame monohydrate; type: physicochemical; conditions: in a variety of solvents commonly used in the food industry; FIG. 3 and FIG. 4 at 20° C.
Description: as §1, with “monohydrate. The solubility results are set forth below:” for “monohydrate.”
FIG. 3 illustrates a comparison of the dissolution of the amorphous neotame of Example 1 with neotame monohydrate in deionized water at 20° C. FIG. 4 illustrates a similar comparison in 0.1 M phosphate buffer.

[3] = Sweetening potency; conditions: amorphous neotame; "is believed to have"
[4] = known sweetener neotame; cited from earlier work

COC(=O)[C@H](Cc1ccccc1)NC(=O)[C@H](CC(=O)O)NCCC(C)(C)C [Example 1, amorphous N-[N-(3,3-dimethylbutyl)-L-α-aspartyl]-L-phenylalanine 1-methyl ester]
Solubility, 0.1 M Phosphate pH3 ([1]; 0.1M phosphate (pH3) in water): 1.49 grams of neotame/100 grams sol
Solubility, 10:90 EtOH:H2 O [1]: 1.57 grams of neotame/100 grams sol
Solubility, 50:50 EtAc:Hexane [1]: 3.07 grams of neotame/100 grams sol
Solubility, Water ([1]; deionized water): 1.35 grams of neotame/100 grams sol
solubility compared to that of the monohydrate form ([1]; in a variety of solvents commonly used in the food industry): higher solubility
rate of dissolution compared to that of the monohydrate form [2]: reduced rate of dissolution
sweetening potency relative to aspartame (believed) [3]: around 40 times that of aspartame

COC(=O)[C@H](Cc1ccccc1)NC(=O)[C@H](CC(=O)O)NCCC(C)(C)C [Neotame Monohydrate, N-[N-(3,3-dimethylbutyl)-L-α-aspartyl]-L-phenylalanine 1-methyl ester]
solubility ([1]; 0.1 m phosphate, pH 3, 0.1M phosphate (pH3) in water, read-out: Solubility, 0.1 M Phosphate pH3): 13.5 mg/mL
Solubility, 10:90 EtOH:H2 O [1]: 1.55 grams of neotame/100 grams sol
Solubility, 50:50 EtAc:Hexane [1]: 1.29 grams of neotame/100 grams sol
solubility ([1]; water, deionized water, read-out: Solubility, Water): 12.8 mg/mL

COC(=O)[C@H](Cc1ccccc1)NC(=O)[C@H](CC(=O)O)NCCC(C)(C)C [Neotame, N-[N-(3,3-dimethylbutyl)-L-α-aspartyl]-L-phenylalanine 1-methyl ester]
sweetening potency relative to aspartame [4]: about 40 times that of aspartame
sweetening potency relative to sucrose [4]: about 8,000 times that of sucrose
